# Assay results as given in patent publication US20230047825A1, “ANTIMICROBIAL PEPTIDES” (priority 2019, published 2023).
# Read-outs that look alike come from different tables or passages of the source. Where a SMILES comes first, the peptide text is derived from it.
# Tests used:
# [1] = tested on: Klebsiella pneumoniae NCTC 13368; type: cell-based; conditions: in µg/mL
# [2] = tested on: VS Enterococcus faecalis NCTC 775; test: Antibacterial activity assay (broth microdilution MIC); type: cell-based
# [3] = tested on: VR Enterococcus faecium NCTC 12204; test: as above; type: cell-based; conditions: VRE12204, in µg/mL
# [4] = tested on: EMR Staphylococcus aureus-15 (EMRSA-15); type: cell-based
# [5] = tested on: MS Staphylococcus aureus ATCC 9144; type: cell-based; conditions: MSSA9144
# HeLa = test: Cytotoxicity assay (XTT); type: cell-based, human; parameters: Toxicity HeLa: unit not given beside the values
# Summary of the method: (§1)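 Cells seeded 24 h in EMEM with 10% FBS and NEAA at 37 °C, 10% CO2, then medium replaced with peptide dilutions. After a further 24 h exposure, viability read by XTT tetrazolium staining.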
# [6] = tested on: Acinetobacter baumannii AYE; type: cell-based; conditions: AYE
# HEK293 = test: Cytotoxicity assay (XTT); type: cell-based, human
# Summary of the method: as §1
# Klebsiella pneumoniae M6 = type: cell-based
# [7] = tested on: Pseudomonas aeruginosa NCTC 13437; test: Antibacterial activity assay (broth microdilution MIC); type: cell-based; conditions: PA13437, in µg/mL
# human red blood cells = test: Haemolysis assay; conditions: red cells of human, 1 h
# Procedure: Haemolysis assay. Haemolysis was tested by incubating titrations of AMPs in PBS with freshly collected human red blood cells for 1 hour at 37 C. Control wells were treated with 0.1% Triton-X-100 to ensure complete lysis, or PBS-only to represent no lysis. Samples were spun down to remove non-lysed cells and the OD^550 of the supernatant was measured using a Clariostar plate reader. The percentage of haemolysis was calculated as % haemolysis=(AP−AB)/(AC−AB)×100, where AP is the absorbance value for a known peptide concentration, AC is the absorbance of the 0.1% Triton-X-100 control, AB is the absorbance of the PBS control. Data presented are averages and standard error from three biological replicate experiments.
# Methods: The natural AMP (termed AMP1) was modified to produce synthetic variants, AMPs 1a, 2a, 2b, 3a and 3b. Minimum inhibitory concentrations (MICs) were determined using the microbroth dilution assay with Mueller Hinton broth (MHB) or RPMI (with 5% FBS) and stability in serum was tested by conducting MICs in MHB containing 10% FBS. Synergy experiments were performed following a checkerboard protocol. Cytotoxicity was tested against HEK293 and HeLa immortalised human cell-lines using the XTT viability stain and by quantifying haemolysis of human red blood cells. Patch clamp analysis was performed using the Port-a-Patch® automated patch-clamp system on DPhPE/DPhPG (model for a Gram-negative plasma membrane) or DPhPG (Gram-positive) model membranes challenged with peptide. The murine lung infection model was performed using the agar bead model with Staphylococcus aureus strain NCTC 13616 (EMRSA-15).
# [8] = tested on: Escherichia coli NCTC 12923; type: cell-based; conditions: EC12923
# [9] = tested on: EMR Staphylococcus aureus-16 (EMRSA-16); type: cell-based; conditions: EMRSA16
# [10] = tested on: Acinetobacter baumannii ATCC 17978; type: cell-based; conditions: in µg/mL; for MIC, Stability in serum (MH): Ab17978
# [11] = untitled table, medium/unit not given, values match RPMI of Table 2
# [12] = untitled table, medium/unit not given, values match RPMI of Table 2, in µg/mL
# [13] = medium and unit not given, in µg/mL
compound,measurement,setting,value
CC(C)C[C@@H](NC(=O)[C@@H](Cc1ccc(O)cc1)NC(=O)[C@@H](Cc1c[nH]cn1)NC(=O)[C@H](NC(=O)[C@@H](CC(C)C)NC(=O)[C@@H](C)NC(=O)[C@@H](C)NC(=O)[C@@H](CCCCN)NC(=O)CNC(=O)[C@H](NC(=O)[C@@H](Cc1c[nH]cn1)NC(=O)[C@@H](CCCCN)NC(=O)CNC(=O)[C@H](NC(=O)[C@@H](Cc1c[nH]cn1)NC(=O)[C@@H](C)NC(=O)[C@@H](C)NC(=O)[C@@H](CCCCN)NC(=O)[C@@H](CCCCN)NC(=O)[C@@H](Cc1ccccc1)NC(=O)[C@@H](Cc1ccccc1)NC(=O)[C@@H](CO)NC(=O)CNC(=O)[C@@H](Cc1c[nH]c2ccccc12)NC(=O)CN)C(C)C)C(C)C)[C@H](C)O)C(N)=O [D-pleurocidin] (HELM PEPTIDE1{G.[dW].G.[dS].[dF].[dF].[dK].[dK].[dA].[dA].[dH].[dV].G.[dK].[dH].[dV].G.[dK].[dA].[dA].[dL].[dT].[dH].[dY].[dL].[am]}$$$$V2.0; N-terminus assumed),"MIC, Stability in serum (MH)","[1]; KP13368, No serum",4
same,"MIC, Stability in serum (MH)","[1]; KP13368, Serum (10% fetal bovine serum)",4
same,MIC on initial panels,"[1]; KP13368, medium and unit not given",4
same,MIC,"[1]; KP13368, untitled table, medium/unit not given, values match RPMI of Table 2",8-16
same,MIC,"[1]; Klebsiella pneumoniae KP13368, (MH)",4
same,MIC,"[1]; Klebsiella pneumoniae KP13368, (RPMI)",8-16
same,"MIC, Peptide concentration",[2]; Mueller-Hinton broth,32 (NG) μg/ml
same,MIC on initial panels,"[2]; VSE775, medium and unit not given, in µg/mL",32
same,MIC on initial panels,[3]; medium and unit not given,16
same,MIC,[3]; [11],4
same,"MIC, Peptide concentration",[4]; EMR -15 (EMRSA-15),1 µg/mL
same,MIC on initial panels,"[4]; EMRSA15, medium and unit inferred",16 µg/mL
same,MIC,"[4]; EMRSA15, untitled table, medium/unit inferred, values match RPMI of Table 2",1 µg/mL
same,"MIC, Peptide concentration",[4]; Mueller-Hinton broth,16 µg/mL
same,MIC on initial panels,[5]; medium and unit inferred,2 µg/mL
same,MIC,[5]; [12],0.5
same,Toxicity HeLa,HeLa; unit not given,47.1 ± 2.1
same,"Toxicity HeLa (EC50), Peptide concentration",HeLa; value printed in parentheses,(47.1 ± 2.1) μg/ml
same,MIC,"[6]; (MH), in µg/mL",1
same,MIC,"[6]; (RPMI), in µg/mL",2
same,"MIC, Stability in serum (MH)",[6]; No serum,2 µg/mL
same,"MIC, Stability in serum (MH)",[6]; Serum (10% fetal bovine serum),2 µg/mL
same,MIC on initial panels,[6]; [13],1
same,MIC,[6]; [12],2
same,Toxicity HEK293,HEK293; unit not given,61.4 ± 3.9
same,"Toxicity HEK293 (EC50), Peptide concentration",HEK293; value printed in parentheses,(61.4 ± 3.9) μg/ml
same,MIC,"Klebsiella pneumoniae M6; (MH), in µg/mL",4
same,MIC,"Klebsiella pneumoniae M6; (RPMI), in µg/mL",4-8
same,"MIC, Stability in serum (MH)",Klebsiella pneumoniae M6; No serum,4 µg/mL
same,"MIC, Stability in serum (MH)",Klebsiella pneumoniae M6; Serum (10% fetal bovine serum),4 µg/mL
same,MIC on initial panels,Klebsiella pneumoniae M6; [13],4
same,MIC,Klebsiella pneumoniae M6; [12],4-8
same,MIC,[7]; (MH),8
same,MIC,[7]; (RPMI),16-32
same,"MIC, Stability in serum (MH)",[7]; No serum,8
same,"MIC, Stability in serum (MH)",[7]; Serum (10% fetal bovine serum),16
same,MIC on initial panels,[7]; medium and unit not given,8
same,MIC,[7]; [11],16-32
same,"Toxicity HC50, Peptide concentration",human red blood cells,>400 µg/mL
same,MIC,"[8]; (MH), in µg/mL",1
same,MIC,"[8]; (RPMI), in µg/mL",2-4
same,"MIC, Stability in serum (MH)",[8]; No serum,1 µg/mL
same,"MIC, Stability in serum (MH)",[8]; Serum (10% fetal bovine serum),0.5 µg/mL
same,MIC on initial panels,[8]; [13],1
same,MIC,[8]; [12],2-4
same,MIC on initial panels,[9]; [13],16
same,MIC,"[9]; untitled table, medium/unit inferred, values match RPMI of Table 2",1 µg/mL
same,MIC,"[10]; AB17978, (MH)",1
same,MIC,"[10]; AB17978, (RPMI)",8
same,MIC on initial panels,"[10]; AB17978, medium and unit not given",1
same,MIC,"[10]; AB17978, untitled table, medium/unit not given, values match RPMI of Table 2",8
same,"MIC, Stability in serum (MH)",[10]; No serum,1
same,"MIC, Stability in serum (MH)",[10]; Serum (10% fetal bovine serum),0.5
